Assay results published in US20220280515A1, “Ophthalmic Composition for Promoting Tear Secretion” (Rohto Pharmaceutical Co., Ltd., priority 2019, published 2022).
Structures can show the parent of a compound that is named as a salt.

Experiments:
[1] = tested on: normal rats; test: Tear secretion promoting action by single ophthalmic administration, Schirmer's test paper, normal rats; assay type: in vivo, Sprague-Dawley (SD) rats; settings: 5 μL/eye single instillation (DIQUAS 3%, 3% pilocarpine, 0.05% delgocitinib), 15 minutes later, Mann-whitney U test
Description: (§1) The tear secretion promoting action of delgocitinib was evaluated using normal rats and lacrimal gland excision rats.
(§2) As a test substance, a 0.05% delgocitinib solution (delgocitinib as the active ingredient and sodium chloride, potassium chloride, sodium hydroxide, boric acid, and chlorhexidine gluconate as additives were combined, dissolved and stirred in purified water) was prepared. As a control substance, pilocarpine hydrochloride (Tokyo Chemical Industry Co., Ltd.) was dissolved and stirred in saline (OTSUKA NORMAL SALINE, Otsuka Pharmaceutical Factory, Inc.) to prepare a 3% pilocarpine solution.
(§3) Into normal male Sprague-Dawley (SD) rats (Japan SLC, Inc.) and SD rats whose main and accessory lacrimal glands had been excised 1 week earlier, saline, the DIQUAS ophthalmic solution 3% (Santen Pharmaceutical Co., Ltd.), the 3% pilocarpine solution, or the 0.05% delgocitinib solution was instilled at a dose of 5 μL/eye. Ten minutes later, anesthesia was induced using somnopentyl (Kyoritsu Seiyaku Corporation), and another 5 minutes later, a Schirmer's test paper was inserted into conjunctival sac on the corner of the eye. One minute later, the test paper was pulled out, and the length of the wet part of the test paper was measured, and this measured value was used as a tear volume.

[2] = tested on: lacrimal gland excised rats; test: Tear secretion promoting action by single ophthalmic administration, Schirmer's test paper, lacrimal gland excised rats; assay type: in vivo, Sprague-Dawley (SD) rats; settings: rats with main and accessory lacrimal glands excised 1 week earlier; 5 μL/eye single instillation (DIQUAS 3%, 3% pilocarpine, 0.05% delgocitinib); 15 minutes later; Mann-whitney U test
Description: as §1, §2, §3

[3] = tested on: dry eye model of rats; settings: reported in Non Patent Literature 1; cited from earlier work
[4] = tested on: lacrimal gland excised rats; test: Action of ameliorating keratoconjunctival epithelial disorders by repeated ophthalmic administration, fluorescein staining score, lacrimal gland excised rats (dry eye model); assay type: in vivo, SD rats; settings: main lacrimal gland excised rats; each concentration (0.0125%, 0.05%, 0.2%), 5 μL/eye four times a day, four weeks; Steel test
Description: The action of ameliorating keratoconjunctival epithelial disorders of delgocitinib was evaluated using rats with lacrimal gland excision used as a dry eye model. Fluorescein sodium salt (Sigma-Aldrich Japan) was dissolved in OTSUKA NORMAL SALINE (Otsuka Pharmaceutical Factory, Inc.) to prepare a 10 mg/mL fluorescein staining solution. Delgocitinib was dissolved and stirred in PBS (Kohjin Bio Co., Ltd.) to prepare delgocitinib solutions at each concentration (0.0125%, 0.05%, and 0.2%). Into male SD rats (Japan SLC, Inc.) whose main lacrimal gland had been excised 1 week earlier, the PBS or the delgocitinib solutions at each concentration were repeatedly instilled four times a day at a dose of 5 μL/eye. Four weeks after the start of ophthalmic instillation, the 10 mg/mL fluorescein staining solution was instilled at a dose of 1 μL/eye. After induction of anesthesia with an ISOFLURANE inhalation solution (Pfizer Japan Inc.), a photograph was taken with a fluorescence microscope (Leica Microsystems). The cornea captured in the photograph was divided into four sections, the staining score of each section was scored on a scale of 0 to 5, and the total score of four sections was used as the corneal epithelial disorder score for the eye.

[5] = tested on: lacrimal gland excised rats; test: Tear volume increasing action by repeated ophthalmic administration, lacrimal gland excised rats (dry eye model); assay type: in vivo, Sprague-Dawley (SD) rats; settings: main lacrimal gland excised rats; each concentration (0.0125%, 0.05%, 0.2%), 5 μL/eye four times a day, four weeks; Steel test
Description: The tear secretion volume increasing action of delgocitinib was evaluated using lacrimal gland excised rats as a dry eye model. Delgocitinib was dissolved and stirred in PBS (Kohjin Bio Co., Ltd.) to prepare delgocitinib solutions (0.0125%, 0.05%, and 0.2%) at each concentration. Into normal male Sprague-Dawley (SD) rats (Japan SLC, Inc.) and SD rats whose main lacrimal gland had been excised 1 week earlier, the PBS or the delgocitinib solutions at each concentration were repeatedly instilled four times a day at a dose of 5 μL/eye. Four weeks after the start of ophthalmic instillation, the PBS or the delgocitinib solutions at each concentration were instilled at a dose of 5 μL/eye, anesthesia was induced using somnopentyl (Kyoritsu Seiyaku Corporation) 10 minutes later, and another 5 minutes later, a Schirmer's test paper was inserted into conjunctival sac on the corner of the eye. One minute later, the test paper was pulled out, and the length of the wet part of the test paper was measured, and this measured value was used as a tear volume.

[6] = tested on: normal mice; test: Tear secretion promoting action by single ophthalmic administration, phenol red thread, normal mice; assay type: in vivo, C57BL/6J mice; settings: 3 μL/eye single instillation, 15 minutes later
Description: The tear secretion promoting action of delgocitinib was evaluated using normal mice. Delgocitinib was dissolved and stirred in PBS (Kohjin Bio Co., Ltd.) to prepare delgocitinib solutions at each concentration (0.0125%, 0.05%, and 0.2%). Female C57BL/6J mice (Japan SLC, Inc.) were retained, and the PBS or the delgocitinib solutions at each concentration were instilled at a dose of 3 μL/eye. Fifteen minutes later, a phenol red thread (ZONE-QUICK, AYUMI Pharmaceutical Corporation) was inserted into conjunctival sac on the corner of the eye. Fifteen seconds later, the phenol red thread was pulled out, the length of the wet part of the phenol red thread was measured, and this measured value was used as the tear volume.

[7] = tested on: normal rabbits; test: Tear secretion promoting action by single ophthalmic administration, Schirmer's test paper, normal rabbits; assay type: in vivo, Japanese white rabbits; settings: 0.05% solution in PBS, 50 μL/eye single instillation, 15 minutes later, Student's t test
Description: The tear secretion promoting action of delgocitinib was evaluated using normal rabbits. Delgocitinib was dissolved and stirred in PBS (Kohjin Bio Co., Ltd.) to prepare a 0.05% delgocitinib solution. Male Japanese white rabbits (Oriental Yeast Co., Ltd.) were placed in retention tubes, and the PBS or the 0.05% delgocitinib solution was instilled at a dose of […]. Fifteen minutes later, a Schirmer's test paper was inserted into conjunctival sac on the corner of the eye. One minute later, the test paper was pulled out, and the length of the wet part of the test paper was measured, which was used as a tear volume.

| SMILES | tear volume (length of the wet part of Schirmer's test paper) compared with the saline group [1] | tear volume (length of the wet part of Schirmer's test paper) compared with the saline group [2] | corneal epithelial disorders [3] | secretion of tear [3] | corneal epithelial disorder score (fluorescein staining, total of four sections each 0 to 5) compared with the PBS group [4] | tear volume (length of the wet part of Schirmer's test paper) compared with the PBS group [5] | tear volume (length of the wet part of phenol red thread) compared with the PBS group ([6]; 0.05% solution, Dunnett's test) | tear volume (length of the wet part of phenol red thread) compared with the PBS group ([6]; 0.2% solution, Dunnett's test) | tear volume (length of the wet part of phenol red thread) compared with the PBS group ([6]; each concentration (0.0125%, 0.05%, 0.2%)) | tear volume (length of the wet part of Schirmer's test paper) compared with the PBS group [7] |
| --- | --- | --- | --- | --- | --- | --- | --- | --- | --- | --- |
| CC[C@@H]1C(=O)OC[C@@H]1Cc1cncn1C [pilocarpine, pilocarpine hydrochloride] | significantly increased | significantly increased only in the DIQUAS ophthalmic solution 3% group and the 0.05% delgocitinib solution group |  |  |  |  |  |  |  |  |
| O=c1ccn([C@@H]2O[C@H](COP(=O)(O)OP(=O)(O)OP(=O)(O)OP(=O)(O)OC[C@H]3O[C@@H](n4ccc(=O)[nH]c4=O)[C@H](O)[C@@H]3O)[C@@H](O)[C@H]2O)c(=O)[nH]1 [diquafosol sodium] |  |  | ameliorated corneal epithelial disorders | promoted secretion of tear |  |  |  |  |  |  |
| C[C@H]1CN(C(=O)CC#N)[C@]12CCN(c1ncnc3[nH]ccc13)C2 [delgocitinib, 3-[(3S,4R)-3-methyl-6-(7H-pyrrolo[2,3-d]pyrimidin-4-yl)-1,6-diazaspiro[3.4]octan-1-yl]-3-oxopropanenitrile] | significantly increased | significantly increased |  |  | significantly decreased | significantly increased | significant increase | significant increase | increased | significantly increased |
